# Legend:
# [1] = system: gastric (AGS) cancer cell line; assay: MTS proliferation assay, AGS; assay type: cell-based, human; settings: for viability (anti-proliferative activity), MTS: as a function of time, triplicate
# Source text: (§1) FIGS. 10A-10F compare anti-proliferative activity of 10 nmoles of compounds −0045 and −0052 against gastric (AGS) (FIGS. 10B and 10C, respectively) and pancreatic (ASPC1) (FIGS. 10E and 10F, respectively) cancer cell lines, as measured as a function of time and compared to palbociclib (−000) (FIGS. 10A-AGS; and 10D-ASPC1) using standard MTS assays in the indicated cell lines; results were in triplicate with reported experimental uncertainty.
# (§2) FIGS. 11A-11F compare anti-proliferative activity of 5 nmoles of compounds −0045 and −0052 against gastric (AGS) (FIGS. 11B and 11C, respectively) and pancreatic (ASPC1) (FIGS. 11E and 11F, respectively) cancer cell lines, as measured as a function of time and compared to palbociclib (−000) (FIGS. 11A-AGS; and 11D-ASPC1), using standard MTS assays in the indicated cell lines; results were in triplicate with reported experimental uncertainty.
# (§3) The anti-proliferative activity of compounds −0045 and −0052 in two cell lines characterized by high levels of miR-21 (gastric adenocarcinoma (AGS) and pancreatic (ASPC1) cancer origin) was determined. These experiments were conducted in a double-blind format, without knowledge of the identity or binding activity of the compounds, to avoid any unintentional bias. […] Viability in the presence of both palbociclib and compound −0052 is decreased after approximately 72-96 hrs to a statistically significant extent (data points marked with asterisks are statistically significant).
# (§4) Cell line maintenance. Using the Cancer Cell Line Encyclopedia (CCLE), in-house cancer cell lines were screened to identify cancer and tissue types with varying levels of miR-21 expression. Experiments were performed using the human-derived cell lines AGS (gastric cancer) and AsPC-1 (pancreatic cancer). Cell lines were obtained from the American Type Culture Collection and maintained per instructions from the supplier. AGS were cultured in F12K medium supplemented with 10% FBS. AsPC-1 were cultured in RPMI, with 10% FBS added. All cells were kept at 37° C. in a humidified atmosphere of 5% CO2 and underwent regular mycoplasma testing. All experiments were conducted when cells were 70-80% confluent.
# (§5) Proliferation assay. The impact of the compound on cellular proliferation was assessed, with 5,000 cells in each cell line seeded in replicates of 6 in a 96 well plate and treated with DMSO or with compounds. After 48 hours, cells were treated with the MTS reagent and optical density was read to generate dose-response curves.
# [2] = system: pancreatic (ASPC1) cancer cell line; assay: MTS proliferation assay, ASPC1; assay type: cell-based, human; settings: for viability (anti-proliferative activity), MTS: as a function of time, triplicate
# Source text: as §1, §2, §3, §4, §5
# [3] = system: mature miR-21 in HeLa cells; assay: qRT-PCR of mature miR-21 in HeLa cells; assay type: cell-based; settings: for decline in levels of mature miR-21: days 4 and 5 of incubation, normalized to no compound; for reduction of all newly synthesized miR-21: worked out from the 20% decrease and miR-21 lifetime of approximately 5 days
# Protocol: FIGS. 12A and 12B compare levels of mature miR-21 in HeLa cells, as measured by standard qRT-PCR after 5 days of incubation in the presence of palbociclib and compounds −0045 (sm1), −0050 (sm3) and −0052 (sm5) (FIG. 12A); and levels of mature miR-21 in HeLa cells were measured by qRT-PCR after 4 days of incubation in the presence of palbociclib (a control) and compounds −0045 (sm1), −0050 (sm3) and −0052 (sm5) (FIG. 12B), normalized to miR-21 levels in the absence of any compound. […] The two panels represent independent duplicates of the same experiment.
# HeLa cells have relatively high levels of miR-21, and this cell line was used to evaluate whether addition of the molecules would decrease levels of mature miR-21, as expected for inhibition of miR-21 processing. […] In contrast, compounds −0045, −50 and −52, induce an approximately 20% percent decline in levels of mature miR-21 (FIGS. 12A and 12B; the comparison of FIG. 12A and FIG. 12B provides an indication in the uncertainty of the data). miR-21 is very long lived, with a lifetime of approximately 5 days. […] Similar results were obtained at higher numbers of cells/plate (200 k vs at the start of the experiment), but the experiment could not be extended beyond 2 days because of the very high cell density reached. The observed trends were nonetheless in agreement with the experiments conducted at lower cell density.
# [4] = system: mature miR-10b in ASPC1 cells; assay: qRT-PCR of mature miR-10b in ASPC1 cells; assay type: cell-based, human; settings: ASPC1, 10 nmoles, 48 hours, relative to DMSO control
# Protocol: FIGS. 14A-14D compare levels of mature miR-10b and pre-miR-10b measured in gastric adenocarcinoma (AGS) (FIGS. 14A and 14B, respectively) and pancreatic cancer cell line (ASPC 1) (FIGS. 14C and 14D, respectively), normalized to internal controls (U6 or U8 snRNA), in the presence of 10 nmoles of palbociclib (a negative control not expected to directly affect miRNA levels) and compounds −0045 and −0052, 48 hours after incubation, relative to DMSO control, and measured by standard qRT-PCR. We notice that levels of pre-miR-10b are very low in both cell lines, rendering the data very uncertain. Statistically significant changes are labeled with asterisks.
# In order to investigate whether inhibition was specific to miR-21, levels of mature miR-10b and pre-miR-10b were examined in the same cell lines (FIGS. 14A-14D); this is another oncogenic microRNA implicated in metastasis. […]
# Quantitative real time PCR analysis. […] RNA concentration was assessed with the NanoDrop ND-1000 spectrophotometer (ThermoFisher Scientific). […] Expression of miR-21 was assessed utilizing the TaqMan microRNA assay (Applied Biosystems). […] All experiments were performed in triplicate, with all samples normalized to the internal controls and relative expression levels calculated using the 2^ΔΔCt method.
Structure (SMILES),"viability (anti-proliferative activity), MTS ([1]; 5 nmoles of compound)","viability (anti-proliferative activity), MTS ([1]; 10 nmoles of compound)","viability (anti-proliferative activity), MTS ([2]; ASPC1, 5 nmoles of compound)","viability (anti-proliferative activity), MTS ([2]; ASPC1, 10 nmoles of compound)",decline in levels of mature miR-21 [3],reduction of all newly synthesized miR-21 [3],change in levels of mature miR-10b [4],"cell killing activity, MTS over 6 days ([1]; both concentrations tested (10 and 5 nmols), double-blind)","cell killing activity, MTS over 6 days ([2]; ASPC1, both concentrations tested (10 and 5 nmols), double-blind)",reduction of levels of mature miR-10b [4]
O=c1[nH]c(Nc2ccc(N3CCNCC3)cn2)nc2cccnc12 [Compound 25],does not,does not,does not,does not,approximately 20%,about 60%,smaller and not statistically significant changes,,,
O=c1[nH]c(Nc2ccc(N3CCNCC3)cn2)nc2cnccc12 [Compound 30],reduce the viability of both cell lines to a statistically significant extent,reduce the viability of both cell lines to a statistically significant extent,reduce the viability of both cell lines to a statistically significant extent,reduce the viability of both cell lines to a statistically significant extent,approximately 20%,about 60%,,Cell killing activity,Cell killing activity,about 2 fold

# From patent US20230416247A1, “DRUG-LIKE MOLECULES AND METHODS FOR THE THERAPEUTIC TARGETING OF MICRORNA-21” (University of Washington, priority 2020, published 2023)
